Measured values as given in patent US10183015B2, “Heterocyclic compounds and methods of use” (Medivation Technologies LLC, priority 2015, dated 2019).
“And” between values parts separate entries of the source, which are not always exact repeats. Equal entries are not always repeated.

Legend:
Type in all cases: in vivo
SREBP1C = assay: Short-term Paigen-diet NASH mouse model: hepatic SREBP1C gene expression (RT-qPCR); conditions: liver, 21 days; for DDct: SREBP1C Dct relative to vehicle mean; for Dct: SREBP1C minus 18S; for 2DDct: SREBP1C relative expression to vehicle group, normalized to 18S; for SREBP1C: raw RT-qPCR value
Description: (§1) To investigate whether Compound #37 prevents the development of pathology associated with NASH and steatosis in an acute exploratory disease model, a study was conducted using a diet-induced acute liver steatosis model in mice. As described below, in this study, C57BL/6J mice were initiated on the Paigen diet and simultaneously treated with Compound #37 (5, 20, and 40 mg/kg/day) or vehicle control (20% HPβCD 10 mL/kg/day) by oral gavage for 21 days.
(§2) After acclimation, 8-week old male C57Bl/6J mice (Charles River) weighing about 25 g were randomized in 4 groups according their body weight and treated once daily around noon by oral gavage with vehicle, or Compound #37 at various for 21 days as follows: Group 1: vehicle-20% (2-hydroxypropyl)-β-cyclodextrin (HP-β-CD) (n=10); Group 2: Compound #37, 5 mg/kg (n=10) Group 3: Compound #37, 20 mg/kg (n=10) Group 4: Compound #37, 40 mg/kg (n=10). During the treatment period, body weight and food intake (measured over 24h) were measured 3 times per week and once a week, respectively. During the acclimation, all mice were fed a standard diet (Special Diets Services RM1 (E), product no. 801492) and tap water ad libitum. After the acclimation period, mice were fed until the end of the experiment with a 60% high fat Paigen diet (60 kcal % fat, 1.25% cholesterol, and 0.5% cholate; D11061901, Research Diet) and tap water ad libitum.
(§3) Gene expression analysis. Hepatic expression levels of genes involved in lipid metabolism (FAS, SREBP1, ACC1, SCD1), cholesterol metabolism (HMG-CoAR, LDLR), SREBP proteolysis (SCAP, INSIG1), ER stress (PERK), oxidative stress (NRF2), inflammation (MCP-1), and fibrosis (collagen 1α1) were quantified by RTqPCR. Expression level was normalized to 18S gene expression and relative expression to vehicle group was calculated with the […] method.

NRF2 = assay: Short-term Paigen-diet NASH mouse model: hepatic NRF2 gene expression (RT-qPCR); design: key to ER and oxidative stress gene expression NRF2: Dct: Ct of gene minus Ct of 18S reference; key to ER and oxidative stress gene expression NRF2: 2DDct: expression relative to vehicle group, normalized to 18S (2^-ΔΔCt); conditions: 21 days
Description: as §1
as §2, with “([…])” for “(n=10) Group 3: Compound #37, 20 mg/kg (n=10)”
as §3

[1] = ob/ob mice: tolerability, weight gain and food intake; conditions: over 8 weeks, all treatment groups
Description: Groups of mice were either untreated (group 1) or treated for 8 weeks with vehicle (group 2), or with Compound #37 at 5 mg/kg (group 3), 10 mg/kg (group 4), or 20 mg/kg (group 5). Treatment was daily by oral gavage in vehicle (20% HPβCD). Values are presented as mean±standard error of the mean (sem). A t test was performed to compare the untreated group and the vehicle group. Then Compound #37-treated groups were compared to the vehicle-treated group with a 1-way ANOVA+Dunnett's post-test. […] For each test, a p<0.05 was considered significant. Of note, animal #39, group 1 was excluded from the statistical analysis, due to low values for all parameters measured. Some other values were considered as out-liners and excluded from the statistical analysis when the value was far below the mean minus 2 SD. Excluded values are marked with an asterisk in Tables 21-23.
These plasma lipid results are consistent with SCAP/SREBP pathway inhibition seen in tissue-specific SCAP knockout mice (Horton et al, 2002) and with inhibition of SREBP in vivo (Moon et al, 2012).

[2] = Compound #37 5 mg/kg, group mean, n=10
[3] = Compound #37 5 mg/kg, individual animals, 5 mg/kg
[4] = Compound #37 20 mg/kg, group mean, n=6
[5] = Compound #37 20 mg/kg, individual animals, 20 mg/kg

## CC(C)Cc1cc(-c2nc(-c3ccc(NS(=O)(=O)C(F)(F)F)cc3Cl)cs2)ccn1 [Compound 37, N-(3-chloro-4-(2-(2-isobutylpyridin-4-yl)thiazol-4-yl)phenyl)-1,1,1-trifluoromethanesulfonamide]
SREBP1C; [2]
  DDct: 0.26
  Dct: 14
  2DDct: 0.95
  SREBP1C: 26.3
SREBP1C; [3]
  DDct: −0.21 and 0.9 and 0.06 and −0.98 and 1.46 and 1.52 and −0.09 and −0.27 and 0.17 and 0.02
  Dct: 13.57 and 14.68 and 13.84 and 12.8 and 15.24 and 15.3 and 13.69 and 13.51 and 13.95 and 13.8
  2DDct: 1.16 and 0.54 and 0.96 and 1.98 and 0.36 and 0.35 and 1.07 and 1.21 and 0.89 and 0.99
  SREBP1C: 27.03 and 27.79 and 25.45 and 26.15 and 27.27 and 28.65 and 25.29 and 25.3 and 25.09 and 24.92
SREBP1C; [4]
  DDct: −0.13
  Dct: 13.6
  2DDct: 1.29
  SREBP1C: 25.8
SREBP1C; [5]
  DDct: 0.5 and 0.38 and 0.11 and −1.36 and 0.66 and −1.08
  Dct: 14.28 and 14.16 and 13.89 and 12.42 and 14.44 and 12.7
  2DDct: 0.71 and 0.77 and 0.93 and 2.57 and 0.63 and 2.12
  SREBP1C: 27.19 and 26.45 and 26.09 and 25.45 and 25.93 and 23.96
NRF2; 5 mg/kg, group mean, n 10
  ER and oxidative stress gene expression NRF2: 2DDct: 0.76
  ER and oxidative stress gene expression NRF2: 18S: 12.3
  ER and oxidative stress gene expression NRF2: DDct: 0.57
  ER and oxidative stress gene expression NRF2: Dct: 11.5
  ER and oxidative stress gene expression NRF2: NRF2: 23.8
NRF2; 5 mg/kg, individual animals
  ER and oxidative stress gene expression NRF2: 2DDct: 0.76 and 0.49 and 0.57 and 1.91 and 0.32 and 0.4 and 0.82 and 1.02 and 0.67 and 0.68
  ER and oxidative stress gene expression NRF2: 18S: 13.46 and 13.11 and 11.61 and 13.35 (2×) and 12.03 and 11.6 and 11.79 and 11.14 and 11.12
  ER and oxidative stress gene expression NRF2: DDct: 0.4 and 1.02 and 0.81 and −0.93 and 1.66 and 1.32 and 0.29 and −0.03 and 0.58 and 0.56
  ER and oxidative stress gene expression NRF2: Dct: 11.34 and 11.96 and 11.75 and 10.01 and 12.6 and 12.26 and 11.23 and 10.91 and 11.52 and 11.5
  ER and oxidative stress gene expression NRF2: NRF2: 24.8 and 25.07 and 23.36 (2×) and 24.63 and 25.61 and 22.83 and 22.7 and 22.66 and 22.62
NRF2; 20 mg/kg, group mean, n 6
  ER and oxidative stress gene expression NRF2: 2DDct: 1.08
  ER and oxidative stress gene expression NRF2: 18S: 12.2
  ER and oxidative stress gene expression NRF2: DDct: 0.03
  ER and oxidative stress gene expression NRF2: Dct: 11
  ER and oxidative stress gene expression NRF2: NRF2: 23.2
NRF2; 20 mg/kg, individual animals
  ER and oxidative stress gene expression NRF2: 2DDct: 0.76 (2×) and 0.91 and 2.23 and 0.65 and 1.13
  ER and oxidative stress gene expression NRF2: 18S: 12.91 and 12.29 and 12.2 and 13.03 and 11.49 and 11.26
  ER and oxidative stress gene expression NRF2: DDct: 0.39 and 0.4 and 0.13 and −1.16 and 0.62 and −0.18
  ER and oxidative stress gene expression NRF2: Dct: 11.33 and 11.34 and 11.07 and 9.78 and 11.56 and 10.76
  ER and oxidative stress gene expression NRF2: NRF2: 24.24 and 23.63 and 23.27 and 22.81 and 23.05 and 22.02
[1]
  tolerability: generally well tolerated
